In patent US20150258096A1, “METHODS AND COMPOSITIONS FOR TREATMENT OF TH2-MEDIATED AND TH17-MEDIATED DISEASES” (THE REGENTS OF THE UNIVERSITY OF CALIFORNIA, priority 2012, published 2015):

Assays:
[1] = system: WT CD11c^+ BM cells; test: Co-culture of WT CD11c+ BM cells with OT-2 CD4+ T cells, IL-4 by ELISA (pro-Th2 phenotype); type: cell-based, mouse; conditions: H-89 10 μM; CE3F4 50 μM or 25 μM (method); 30 min at 37° C.; FIG. 9b
Experimental: Cytokine levels in the supernatant were determined using ELISA kits for IL-4, IL-5, IL-13, IL-10, IFNγ, TNFα and IL-17A (eBioscience, La Jolla, Calif.) following the manufacturers' instructions as published^17.
WT BM-derived CD11c^+ cells were cultured and then incubated with a PKA inhibitor (H-89, 10 μM), with or without pretreatment with pertussis toxin (PTX, 100 μg/ml, 18 h), or with EPAC inhibitor (CE3F4, 25 μM) for 30 min at 37° C., then washed and co-cultured with OT-2 T cells.

[2] = system: CCL2 expression in Gnas^ΔCD11c CD11c^+ BM cells; test: CCL2 mRNA levels (qPCR) in CD11c+ BM cells; type: cell-based, mouse; conditions: Gnas^ΔCD11c CD11c+ BM cells incubated with 8-CPT-cAMP 50 μM; FIG. 9g
Experimental: Isolation of RNA was carried out using an RNeasy Mini Kit (QIAGEN, Valencia, Calif.) according to the manufacturer's instructions. The cDNA was synthesized using Superscript III First-Strand system (Invitrogen). Quantitative PCR analysis was performed as described previously^54. SYBR Green PCR Master Mix was used for real-time PCR (7300 system, Applied Biosystems). Samples were run in triplicate and normalized by a housekeeping gene (mouse GAPDH).

[3] = system: WT (B6) and Gnas^ΔCD11c recipient mice; test: Adoptive transfer of OVA-loaded Gnas^ΔCD11c CD11c+ BM cells treated with or without 8-CPT-cAMP; type: in vivo, mouse; conditions: BM cells treated in vitro with 50 μM 8-CPT-cAMP before i.n. transfer, 2×10^5 cells/recipient
Experimental: FIG. 14: Adoptive transfer of CD11c^+ BM cells from Gnas^ΔCD11c mice induces a Th2 bias in vivo, a response that is inhibited by a cell-permeable cAMP analogue: (a) OVA-specific IL-4 response by OT-2 CD4^+ T cells co-cultured with cell-permeable cAMP (8-CPT-cAMP, 50 μM)-treated CD11c^+ BM cells, (b) Protocol of the adoptive transfer. OVA-loaded Gnas^ΔCD11c CD11c^+ BM cells were incubated in the absence and presence of 50 μM 8-CPT-cAMP (CPT) in vitro prior to i.n. transfer to WT (B6 mice) and Gnas^ΔCD11c recipients (2×10^5 cells/recipient), (c) IL-4 levels of anti-CD3/28 Ab-stimulated CD4^+ T cells (spleen) from WT or Gnas^ΔCD11c recipients (ELISA), (d) Serum levels of IgE and IgG1 from WT and Gnas^ΔCD11c mice that received Gnas^ΔCD11c CD11c^+ BM cells loaded with OVA with/without CPT, (e) Lung histology from WT and Gnas^ΔCD11c recipients (magnification ×100, scale bar: 100 μm) (Data are mean±s.e.m, n=3-4 in each group; * p<0.05, ** p<0.01, p<0.001).
Adoptive transfer of OVA-pulsed Gnas^ΔCD11c CD11c^+ BM cells into mice was performed as described previously^55. […] 1 day after the last OVA challenge, mice were sacrificed and assessed by lung histology, measurement of serum immunoglobulins and cytokine production.

[4] = system: Gnas^ΔCD11c CD11c^+ BM cells; test: Co-culture of Gnas^ΔCD11c CD11c+ BM cells with OT-2 CD4+ T cells, IL-4 by ELISA (pro-Th2 phenotype); type: cell-based, mouse
Experimental: For the inhibition of Th2 response by cAMP, fl/fl or Gnas^ΔCD11c BM-derived CD11c^+ cells were cultured as above, then, incubated with 8-CPT-cAMP (50 μM) for 24 h, washed and then co-cultured with OT-2 T cells.

[5] = system: Wild-type B6 mice; test: Immunization with OVA, alum and cAMP-elevating agent; OVA-specific IL-17 (ELISA); type: in vivo, mouse; conditions: i.p. twice two weeks apart, OVA 50 μg/mice with alum; colforsin 1 mg/kg, IBMX 5 mg/kg; spleen cells of day 28 incubated 3 days with OVA; FIG. 16
Experimental: FIG. 16 cAMP agents provoke IL-17 responses: Wild-type B6 mice were immunized intraperitoneally (i.p.) twice two weeks apart with OVA (50 μg/mice) with and without alum (20 mg/mice), and colforsin (CF; a cAMP elevating drug that is approved for human use in Japan, 1 mg/kg), IBMX (a PDE inhibitor, 5 mg/kg), or solvent only as a control; on day 28, single-cell suspensions were prepared from the spleens and incubated for 3 days with OVA (200 μg/mL) as we described earlier (16); IL-17 levels were then detected (ELISA); *p<0.05 and **p<0.01 compared with OVA/alum-immunized group, n=4/group.
Based on the data presented above, co-immunization with antigen and a cAMP-elevating agent can induce a Th17 response. To promote stimulation of the same DC with antigen and cAMP agent, both were adsorbed to alum, an adjuvant used in humans (22), and immunized C57BL/6 (B6) mice with the combination.

## CC1CCc2c(cc(Br)c(F)c2Br)N1C=O (stereo not drawn) [CE3F4]
[1]
  pro-Th2 phenotype of WT CD11c+ BM cells (IL-4 levels of co-cultured OT-2 CD4+ T cells): but not with an EPAC inhibitor (CE3F4), promoted their pro-Th2 phenotype

## Nc1ncnc2c1nc(Sc1ccc(Cl)cc1)n2[C@@H]1O[C@@H]2COP(=O)([O-])O[C@H]2[C@H]1O.[Na+] [CPT, 8-(4-Chlorophenylthio) adenosine 3′,5′-cyclic monophosphate sodium salt]
[2]
  CCL2 expression (mRNA, qPCR): decreased CCL2 expression
[3]; FIG. 14c-d
  development of Th2 bias in recipients (IL-4 of splenic CD4+ T cells, serum IgE): inhibited development of Th2 bias
[3]; FIG. 14e
  airway inflammation in recipients (lung histology): inhibited development of Th2 bias and airway inflammation
[4]; 8-CPT-cAMP 50 μM, 24 h, in vitro, FIG. 14a
  IL-4 production by OT-2 CD4+ T cells co-cultured with treated Gnas^ΔCD11c BM cells: abolished the subsequent IL-4 production

## O=S(=O)(NCCNC/C=C/c1ccc(Br)cc1)c1cccc2cnccc12 [H-89]
[1]
  pro-Th2 phenotype of WT CD11c+ BM cells (IL-4 levels of co-cultured OT-2 CD4+ T cells): promoted their pro-Th2 phenotype

## CC(C)Cn1c(=O)n(C)c(=O)c2[nH]cnc21 [IBMX, 3-isobutyl-1-methylxanthine]
[5]
  OVA-specific IL-17 response: provoked a robust OVA-specific IL-17 response

## O=P1(O)OCC2OC(n3cnc4c(Nc5ccccc5)ncnc43)C(O)C2O1 (stereo not drawn) [N6, Phenyladenosine-3′,5′-cyclic monophosphate]
[4]; BM cells incubated with cAMP analogue 50 μM for 24 h, washed, co-cultured with OT-2 T cells, FIG. 9a
  pro-Th2 phenotype of Gnas^ΔCD11c CD11c+ BM cells (IL-4 levels of co-cultured OT-2 CD4+ T cells): abolished the pro-Th2 phenotype

## C=C[C@@]1(C)CC(=O)[C@]2(O)[C@@]3(C)[C@@H](O)CCC(C)(C)[C@@H]3[C@H](O)[C@H](OC(C)=O)[C@@]2(C)O1 [colforsin]
[5]
  OVA-specific IL-17 response: provoked a robust OVA-specific IL-17 response
